Source: patent US20150272939A1, “Identification of Small Molecule Inhibitors of Jumonji AT-Rich Interactive Domain 1A (JARID1A) and 1B (JARID1B) Histone Demethylase” (Yale University, priority 2012, published 2015)
Several values for one entry are separate records, joined by “and”; a condition that tells them apart may be missing. Identical values can stand only once. Like-named read-outs stand apart in the source and are kept apart here.

Experiments:
[1] = target: T1, JARID1B (Homo sapiens, UniProt Q9UGL1); assay: FLAG-JARID1B histone demethylase assay with AlphaScreen detection (HTS and dose response); format: biochemical; conditions: for Assay − Artifact Signal (percent): assay signal minus artifact signal; for inhibition at 20 µM: high-throughput screen, compound 20 μM, read-out: Inhibitory effect (percent); for Assay Signal (percent) / Validation result of HTS active: effect of the compound in the JARID1B AlphaScreen demethylase assay: validation of HTS actives; for Assay Signal (percent): effect of compound in JARID1B AlphaScreen assay; for Validation result of HTS active: effect of the compound in the JARID1B AlphaScreen demethylase assay: total signal before subtraction of artifact signal;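 on Assay Signal (percent): compound tested at 20 µM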;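 on Assay − Artifact Signal (percent): compound tested at 20 µM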;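 on all read-outs here: FLAG-tagged JARID1B at 4 nM acting on a biotinylated H3K4me3 peptide, demethylation read by AlphaScreen luminescence, with hits checked against bio-H3K4me2 without enzyme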
T1 construct: The FLAG tagged full length JARID1B enzyme was expressed in Sf21 insect cells using FLAG-JARID1B baculoviruses; FLAG (N); made in house; host or cells: Sf21 insect cells (baculovirus)
T1 sequence (Q9UGL1 whole entry): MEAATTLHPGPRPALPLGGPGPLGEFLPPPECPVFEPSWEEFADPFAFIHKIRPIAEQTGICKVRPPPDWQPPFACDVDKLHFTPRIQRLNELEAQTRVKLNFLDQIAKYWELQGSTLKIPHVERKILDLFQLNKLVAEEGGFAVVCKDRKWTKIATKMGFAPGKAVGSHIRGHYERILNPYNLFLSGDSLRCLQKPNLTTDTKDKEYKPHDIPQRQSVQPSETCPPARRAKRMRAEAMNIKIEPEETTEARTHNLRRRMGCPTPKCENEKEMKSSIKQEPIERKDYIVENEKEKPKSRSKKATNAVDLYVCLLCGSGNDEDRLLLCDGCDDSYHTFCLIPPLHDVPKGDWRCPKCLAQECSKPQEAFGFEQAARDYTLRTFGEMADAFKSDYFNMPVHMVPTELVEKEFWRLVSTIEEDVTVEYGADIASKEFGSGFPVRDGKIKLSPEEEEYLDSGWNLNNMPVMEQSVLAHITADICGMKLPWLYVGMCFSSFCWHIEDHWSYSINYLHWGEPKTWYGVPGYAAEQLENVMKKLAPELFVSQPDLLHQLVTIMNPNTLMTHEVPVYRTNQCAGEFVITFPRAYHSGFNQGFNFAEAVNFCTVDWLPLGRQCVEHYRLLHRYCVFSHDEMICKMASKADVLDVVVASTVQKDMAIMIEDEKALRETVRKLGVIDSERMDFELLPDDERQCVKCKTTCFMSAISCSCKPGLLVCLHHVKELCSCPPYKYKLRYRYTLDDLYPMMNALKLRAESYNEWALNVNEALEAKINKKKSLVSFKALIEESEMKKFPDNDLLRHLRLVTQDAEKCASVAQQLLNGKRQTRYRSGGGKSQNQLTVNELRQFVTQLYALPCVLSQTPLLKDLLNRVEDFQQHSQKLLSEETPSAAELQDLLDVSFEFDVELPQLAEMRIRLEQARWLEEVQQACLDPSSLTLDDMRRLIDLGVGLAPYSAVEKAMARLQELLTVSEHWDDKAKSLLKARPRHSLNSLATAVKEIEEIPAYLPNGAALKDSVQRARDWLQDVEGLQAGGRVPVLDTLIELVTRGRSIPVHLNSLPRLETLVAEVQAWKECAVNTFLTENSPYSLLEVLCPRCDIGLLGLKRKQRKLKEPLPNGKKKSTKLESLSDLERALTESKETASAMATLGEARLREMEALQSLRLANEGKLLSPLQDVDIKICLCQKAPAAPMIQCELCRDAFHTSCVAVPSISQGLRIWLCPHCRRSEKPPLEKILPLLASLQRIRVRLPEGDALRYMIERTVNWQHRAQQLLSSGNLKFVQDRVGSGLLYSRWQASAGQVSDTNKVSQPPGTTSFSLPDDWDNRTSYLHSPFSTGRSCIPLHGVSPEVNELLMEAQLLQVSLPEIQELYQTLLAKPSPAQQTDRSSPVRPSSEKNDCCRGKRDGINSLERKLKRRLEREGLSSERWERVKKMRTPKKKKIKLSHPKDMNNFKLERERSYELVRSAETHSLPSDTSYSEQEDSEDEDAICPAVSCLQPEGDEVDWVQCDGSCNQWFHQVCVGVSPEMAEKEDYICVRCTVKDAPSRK

[2] = target: T2, JARID1A (Homo sapiens, UniProt P29375); assay: FLAG-JARID1A histone demethylase assay with AlphaScreen detection (HTS and dose response); format: biochemical; conditions: for IC50: dose response, 50 μM Fe (II), read-out: IC50 against JARID1A
T2 construct: the high-throughput screen of the invention utilizes full length JARID1A or JARID1B; FLAG (N); made in house; host or cells: Sf21 insect cells (baculovirus)
T2 sequence (P29375 whole entry): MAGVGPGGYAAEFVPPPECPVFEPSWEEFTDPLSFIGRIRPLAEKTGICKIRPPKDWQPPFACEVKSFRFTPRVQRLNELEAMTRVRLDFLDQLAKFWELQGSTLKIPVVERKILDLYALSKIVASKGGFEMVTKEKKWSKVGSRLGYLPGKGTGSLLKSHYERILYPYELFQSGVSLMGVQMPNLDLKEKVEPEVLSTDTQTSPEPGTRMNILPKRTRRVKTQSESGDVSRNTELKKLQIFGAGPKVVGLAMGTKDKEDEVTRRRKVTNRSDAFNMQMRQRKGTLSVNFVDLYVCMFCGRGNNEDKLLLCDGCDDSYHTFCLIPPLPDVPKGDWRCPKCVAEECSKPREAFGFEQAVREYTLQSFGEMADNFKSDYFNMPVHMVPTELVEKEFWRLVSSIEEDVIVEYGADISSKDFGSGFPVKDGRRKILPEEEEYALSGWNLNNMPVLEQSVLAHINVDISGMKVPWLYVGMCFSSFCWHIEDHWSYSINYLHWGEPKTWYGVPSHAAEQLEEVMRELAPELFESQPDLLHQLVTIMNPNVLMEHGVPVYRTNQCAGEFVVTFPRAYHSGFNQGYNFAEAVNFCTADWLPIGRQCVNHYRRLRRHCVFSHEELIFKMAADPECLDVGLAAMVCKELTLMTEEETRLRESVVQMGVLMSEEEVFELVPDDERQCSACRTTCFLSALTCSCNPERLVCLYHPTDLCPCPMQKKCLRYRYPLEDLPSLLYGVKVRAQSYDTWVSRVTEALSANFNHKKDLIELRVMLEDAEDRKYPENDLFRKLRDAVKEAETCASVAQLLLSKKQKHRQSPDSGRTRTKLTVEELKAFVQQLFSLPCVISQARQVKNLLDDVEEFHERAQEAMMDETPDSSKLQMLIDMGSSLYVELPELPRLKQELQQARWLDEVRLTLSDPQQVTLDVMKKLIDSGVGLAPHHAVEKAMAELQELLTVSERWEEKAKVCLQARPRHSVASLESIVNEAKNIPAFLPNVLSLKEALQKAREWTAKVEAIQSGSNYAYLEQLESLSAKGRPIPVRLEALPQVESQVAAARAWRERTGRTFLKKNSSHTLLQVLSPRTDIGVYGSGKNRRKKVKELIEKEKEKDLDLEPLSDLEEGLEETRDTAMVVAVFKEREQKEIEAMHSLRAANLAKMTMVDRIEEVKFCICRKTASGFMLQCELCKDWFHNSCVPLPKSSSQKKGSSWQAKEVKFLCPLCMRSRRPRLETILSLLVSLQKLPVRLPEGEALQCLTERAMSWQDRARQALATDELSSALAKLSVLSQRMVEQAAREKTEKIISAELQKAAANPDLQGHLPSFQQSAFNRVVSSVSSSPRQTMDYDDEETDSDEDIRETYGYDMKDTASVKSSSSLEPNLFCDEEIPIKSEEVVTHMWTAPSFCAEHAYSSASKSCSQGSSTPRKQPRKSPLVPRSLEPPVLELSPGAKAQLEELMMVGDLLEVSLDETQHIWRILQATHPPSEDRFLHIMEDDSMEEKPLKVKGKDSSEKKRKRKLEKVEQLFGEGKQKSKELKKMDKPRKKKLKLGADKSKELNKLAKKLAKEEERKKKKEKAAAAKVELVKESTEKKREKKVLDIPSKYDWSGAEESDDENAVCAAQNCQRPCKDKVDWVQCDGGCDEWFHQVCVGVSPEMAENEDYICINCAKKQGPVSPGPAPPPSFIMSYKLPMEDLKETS
Description: (§1) Histone demethylase assays were performed in 384 well white plates (Corning 3574). Demethylase buffer conditions for FLAG-JARID1B were as follows: 10 μM α-KG, 100 μM ascorbate, 50 μM (NH4)2Fe(SO4)2, 50 mM Hepes (pH 7.5), 0.01% (v/v) Tween 20, and 0.1% (w/v) bovine serum albumin. The demethylase reactions included 64 nM bio-H3K4me3 peptide alone or in the presence of 4 nM FLAG-JARID1B enzyme in a 10 μl reaction at 25° C. for 30 minutes. As a positive control, 64 nM bio-H3K4me2 peptide was assayed in the absence of enzyme. Assay conditions for FLAG-JARID1C is the same as for FLAG-JARID1B except that 20 nM enzyme was used. For FLAG-JARID1A, the demethylase buffer was similar to FLAG-JARID1B, except that 125 μM α-KG and 13 nM FLAG-JARID1A enzyme were used. The His-FLAG-UTX and FLAG-JMJD3 demethylase assays also employed the same buffer conditions as for FLAG-JARID1B, with 64 nM bio-H3K27me3 peptide assayed with or without 25 nM His-FLAG-UTX enzyme or 50 nM FLAG-JMJD3 (BPS Bioscience, 50115), and 64 nM bio-H3K27me2 peptide as a positive control. JARID1A, JARID1C, UTX, and JMJD3 histone demethylase assays proceeded at 37° C. for 1 hour.
(§2) The AlphaScreen General IgG (Protein A) detection kit was obtained from PerkinElmer. Demethylated H3K4 products were detected using AlphaScreen antibody/bead mix containing 7.5 mM ethylenediaminetetraacetic acid (EDTA) and 0.15 μg/ml anti-H3K4me1 antibody in a final volume of 20 μl. For detection of demethylated H3K27 products, the AlphaScreen antibody/bead mix containing 7.5 mM EDTA and 0.15 μg/ml anti-H3K27me2 antibody in a final volume of 20 μl. The luminescence signal was measured using the Envision (PerkinElmer) or Pherastar (BMG Labtech) Platereaders.
FLAG-JARID1A was screened against 9,600 compounds. These compound libraries were from the Yale Center for Molecular Discovery. The libraries screened include the MicroSource Gen-Plus, MicroSource Pure Natural Products, NIH Clinical Collection, Enzo Epigenetics, and ChemBridge MW-Set libraries. Compounds dissolved in dimethyl sulfoxide (DMSO) were pintooled into a 384 well plate containing bio-H3K4me3 peptide in demethylase buffer to a final concentration of 20 μM. The reactions were initiated by the addition of 13 nM FLAG-JARID1A, and detected as described above. To eliminate the false positive hits, a counterscreen was performed against bio-H3K4me2 in the absence of enzyme.

[3] = AlphaScreen counterscreen against bio-H3K4me2 peptide in the absence of enzyme (artifact signal); conditions: for Artifact Signal (percent): effect of the compound when incubated with bio-H3K4me2 peptide (counterscreen, no enzyme); for Artifact signal: effect of the compound when it is incubated with bio-H3K4me2 peptide: counterscreen, no enzyme;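 on all read-outs here: counterscreen run without enzyme against bio-H3K4me2 peptide to remove false positive hits from the JARID1 demethylase AlphaScreen screen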
[4] = target: T3, JARID1C (Homo sapiens, UniProt P41229); assay: FLAG-JARID1C histone demethylase assay with AlphaScreen detection; format: biochemical; conditions: compound 10 μM, 64 nM bio-H3K4me3 peptide
T3 construct: FLAG (N); made in house; host or cells: Sf21 insect cells (baculovirus)
Description: as §1, §2

[5] = target: T4, UTX (Homo sapiens, UniProt O15550); assay: His-FLAG-UTX H3K27me3 demethylase assay with AlphaScreen detection; format: biochemical; conditions: compound 10 μM, 64 nM bio-H3K27me3 peptide
T4 construct: His (N); FLAG (N); made in house; host or cells: Sf21 insect cells (baculovirus)
T4 sequence (O15550 whole entry): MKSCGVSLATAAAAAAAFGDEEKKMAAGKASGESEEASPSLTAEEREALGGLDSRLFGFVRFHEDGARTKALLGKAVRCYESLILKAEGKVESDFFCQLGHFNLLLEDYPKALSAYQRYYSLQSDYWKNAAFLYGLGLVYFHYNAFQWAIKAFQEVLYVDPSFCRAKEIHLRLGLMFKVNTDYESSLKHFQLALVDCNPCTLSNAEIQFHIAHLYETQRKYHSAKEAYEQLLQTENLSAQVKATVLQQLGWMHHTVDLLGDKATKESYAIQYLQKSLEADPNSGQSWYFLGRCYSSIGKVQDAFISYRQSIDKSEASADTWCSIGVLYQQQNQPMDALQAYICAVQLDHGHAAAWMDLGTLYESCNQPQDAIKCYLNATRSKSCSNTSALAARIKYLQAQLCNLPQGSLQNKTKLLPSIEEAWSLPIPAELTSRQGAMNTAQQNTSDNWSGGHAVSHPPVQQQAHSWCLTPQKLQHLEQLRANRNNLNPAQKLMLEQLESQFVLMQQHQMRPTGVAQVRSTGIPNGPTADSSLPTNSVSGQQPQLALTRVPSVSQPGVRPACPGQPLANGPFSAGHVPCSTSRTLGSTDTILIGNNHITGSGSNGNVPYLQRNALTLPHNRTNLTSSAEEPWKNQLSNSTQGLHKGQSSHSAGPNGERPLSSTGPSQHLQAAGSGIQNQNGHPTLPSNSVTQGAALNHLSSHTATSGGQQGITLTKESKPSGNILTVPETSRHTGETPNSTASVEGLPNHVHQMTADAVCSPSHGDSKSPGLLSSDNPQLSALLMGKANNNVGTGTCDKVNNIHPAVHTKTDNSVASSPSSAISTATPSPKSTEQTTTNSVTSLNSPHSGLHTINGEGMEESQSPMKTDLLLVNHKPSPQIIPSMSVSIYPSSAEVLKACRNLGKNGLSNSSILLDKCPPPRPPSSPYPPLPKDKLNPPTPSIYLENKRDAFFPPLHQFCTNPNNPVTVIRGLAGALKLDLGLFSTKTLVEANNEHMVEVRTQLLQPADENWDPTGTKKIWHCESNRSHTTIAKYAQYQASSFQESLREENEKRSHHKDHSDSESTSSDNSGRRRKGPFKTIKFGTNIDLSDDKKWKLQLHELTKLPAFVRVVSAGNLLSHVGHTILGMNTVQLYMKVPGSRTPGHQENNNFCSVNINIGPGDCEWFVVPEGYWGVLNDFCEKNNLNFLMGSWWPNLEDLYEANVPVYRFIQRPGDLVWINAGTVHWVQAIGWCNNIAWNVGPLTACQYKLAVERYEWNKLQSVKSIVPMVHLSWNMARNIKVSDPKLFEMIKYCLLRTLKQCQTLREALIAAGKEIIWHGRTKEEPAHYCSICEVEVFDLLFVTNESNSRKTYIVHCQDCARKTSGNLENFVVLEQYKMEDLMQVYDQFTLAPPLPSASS
Description: as §1, with “The His-FLAG-UTX and FLAG-JMJD3 demethylase assays also employed the same buffer conditions as for FLAG-JARID1B, with 64 nM bio-H3K27me3 peptide assayed with or without 25 nM His-FLAG-UTX enzyme or 50 nM FLAG-JMJD3 (BPS Bioscience, 50115), and 64 nM bio-H3K27me2 peptide as a positive control. JARID1A, JARID1C, UTX, and JMJD3 histone demethylase assays proceeded at 37° C. for 1 hour.” left out
as §2, with “For detection of demethylated H3K27 products, the AlphaScreen antibody/bead mix containing 7.5 mM EDTA and 0.15 μg/ml anti-H3K27me2 antibody in a final volume of 20 μl.” left out

[6] = standard demethylase conditions (10 μM α-KG, 50 μM Fe (II))
[7] = compound 10 μM, 64 nM bio-H3K4me3 peptide

Row | SMILES | Assay − Artifact Signal (percent) [1] [%] | inhibition at 20 µM [1, 6] [%] | Assay Signal (percent) [1] [%] | Artifact Signal (percent) [3] [%] | further results
1 | COc1ccc(OC)c(Nc2nc(=O)c3cccnc3s2)c1 [YU151897] | 42.55 | 47.6 | 40.43 | −2.12 | IC50 [2]: ≤ 3 µM
2 | O=C(O)c1ccnc(C(=O)O)c1 [2,4-PDCA, 2,4-pyridinedicarboxylic acid monohydrate, reference compound] | – | – | – | – | JARID1B demethylase activity [1, 7]: inhibited; JARID1A demethylase activity [2, 7]: inhibited; IC50 [2]: 4.1 µM and ~4 µM; JARID1C demethylase activity [4]: inhibited; UTX demethylase activity [5]: did not inhibit
3 | Sc1ncnc2nc[nH]c12 [Mercaptopurine] | – | – | – | – | IC50 [2]: ~1 µM
4 | C[C@](N)(Cc1ccc(O)c(O)c1)C(=O)O [Methyldopa] | – | – | – | – | IC50 [2]: > 1 µM
5 | COc1cc(C=O)ccc1OC(=O)c1ccncc1 [YU146698] | 53.39 | 52.5 | 48.27 | −5.12 | –
6 | CCC(=O)Nc1ccc(N2CCCC2)c(C(=O)O)c1 [YU208199] | 17.19 | 63.4 | 50.16 | 32.96 | –
7 | Cc1ccsc1CNn1cnnc1S [YU145432] | 46.83 | 33.3 | 48.50 | 1.67 | –
8 | Cc1cccc(NC(c2ccncc2)c2ccc3cccnc3c2O)c1 (stereo not drawn) [YU172170] | 16.90 | 70 | 65.09 | 48.19 | –
9 | Nc1c([N+](=O)[O-])cc(F)c(N2CCOCC2)c1Br [YU152451] | – | 74.6 | – | – | Validation result of HTS active: effect of the compound in the JARID1B AlphaScreen demethylase assay [1]: 2.82; Artifact signal: effect of the compound when it is incubated with bio-H3K4me2 peptide [3]: −3.09
10 | C=CCO[C@H]1[C@H](O)[C@H](OCC=C)[C@H](O)[C@@H](OCC=C)[C@@H]1O [YU035165] | 13.07 | 49.5 | 15.19 | 2.11 | –
11 | CC(=O)Oc1c([N+](=O)[O-])cc2c(c1Br)CCCC2 [YU151714] | 12.20 | 32.3 | 13.44 | 1.24 | –
12 | Nc1nc2nc[nH]c2c(=S)[nH]1 [YU034024, THIOGUANINE, reference compound] | 36.52 | – | 36.89 | 0.37 | inhibition at 20 µM ([1]; IDs marked *: additional hits under reaction condition with 1 mM α-KG): 52.2%
13 | O=C(OC[C@H]1O[C@@H](OC(=O)c2cc(O)c(O)c(OC(=O)c3cc(O)c(O)c(O)c3)c2)[C@H](OC(=O)c2cc(O)c(O)c(OC(=O)c3cc(O)c(O)c(O)c3)c2)[C@@H](OC(=O)c2cc(O)c(O)c(OC(=O)c3cc(O)c(O)c(O)c3)c2)[C@@H]1OC(=O)c1cc(O)c(O)c(OC(=O)c2cc(O)c(O)c(O)c2)c1)c1cc(O)c(O)c(OC(=O)c2cc(O)c(O)c(O)c2)c1 (stereo in doubt) [YU153507, TANNIC ACID, reference compound] | – | – | – | – | Validation result of HTS active: effect of the compound in the JARID1B AlphaScreen demethylase assay [1]: 105.15; Artifact signal: effect of the compound when it is incubated with bio-H3K4me2 peptide [3]: 99.80
14 | CCC(=O)Nc1ccc(N(C)CCCc2c(C)nn(C)c2C)c(C(=O)O)c1 [YU208228] | – | 43.4 | – | – | Validation result of HTS active: effect of the compound in the JARID1B AlphaScreen demethylase assay [1]: 24.80; Artifact signal: effect of the compound when it is incubated with bio-H3K4me2 peptide [3]: 20.21
15 | O=C(O)c1cc(O)c(=O)c2c(O)c(O)c(O)cc2c1 [YU155193, PURPUROGALLIN-4- CARBOXYLIC ACID, reference compound] | – | 97.5 | – | – | Validation result of HTS active: effect of the compound in the JARID1B AlphaScreen demethylase assay [1]: −1.37; Artifact signal: effect of the compound when it is incubated with bio-H3K4me2 peptide [3]: −3.21
16 | c1ccc(-c2nc3ccccn3c2Nc2ccc3c(c2)OCCO3)nc1 [YU172999] | 88.40 | 96.7 | 98.42 | 10.03 | –
17 | S=C(Nc1ccc2c(c1)OCO2)Nn1cnnc1 [YU147019] | 17.76 | 37.3 | 16.46 | −1.29 | –
18 | NC[C@H](O)c1ccc(O)c(O)c1 [YU033927, NOREPINEPHRINE, reference compound] | 37.97 | 58.5 | 39.80 | 1.83 | –
